Source: patent publication US9126980B2, “Compounds for inhibiting the interaction of BCL2 with binding partners” (Novartis AG, priority 2011, dated 2015)
Read-outs that look alike come from different tables or passages of the source.

Columns and labels:
[1] = molecular target: BCL-2 binding to biotinylated BAD peptide (Homo sapiens (Human), UniProt P10415); experiment: SPR (Biacore) solution inhibition assay, BCL-2 binding to BAD peptide surface; conditions: read-out: BCL2_SPR IC50 BAD
Text: (§1) The present method includes utility of a Surface plasmon resonance (SPR)-based biosensor (Biacore™′ GE Healthcare, Uppsala, Sweden) to characterize BCL-2 inhibitors.
(§2) Biacore™ utilizes the phenomenon of surface plasmon resonance (SPR) to detect and measure binding interactions. In a typical Biacore experiment, one of the interacting molecules (ligand) is immobilized on a flexible dextran matrix while the interacting partner (analyte) is allowed to flow across that surface. A binding interaction results in an increase in mass on the sensor surface and a corresponding direct change in the refractive index of the medium in the vicinity of the sensor surface. Changes in refractive index or signal are recorded in resonance units (R.U.) Signal changes due to association and dissociation of complexes are monitored in a non-invasive manner, continuously and in real-time, the results of which are reported in the form of a sensorgram.
(§3) The SPR assay is configured to examine solution inhibition of BCL-2 binding to peptide derivatized sensor surfaces to generate IC50 values as a measure of inhibitor potency.
(§4) Solution Inhibition Assay Format:
(§5) Biacore™ A100 (GE Healthcare, Uppsala, Sweden) was used to conduct all experiments reported herein. Sensor surface preparation and all interaction analyses experiments were performed at 25° C. Reagents were purchased from GE Healthcare. Running buffer containing 10 mM Hepes, pH7.4, 150 mM sodium chloride, 1.25 mM Dithiothreitol, 3% Dimethyl sulfoxide and 0.05% polysorbate 20 were utilized throughout all analyses.
(§6) Biotinylated BAK, BAD and NOXA peptides were diluted to 10 nM in running buffer and captured onto a sensor surface pre-derivatized with streptavidin (sensor chip SA) to peptide surface densities in the range 50-100 R.U. Peptide captured surfaces were blocked with 500 μM PEO2-Biotin.
(§7) Interaction analyses were performed by first equilibrating each sample within a 6 point three fold compound dilution series in the range […] with 56 nM BCL-2 for one hour during instrument start-up procedures. Protein compound mixtures were then injected over each peptide surface in parallel for 60 seconds at a flow-rate of 30 μL/min. 56 nM BCL-2 control samples were also prepared and run at regular intervals during the assay. Surface regeneration was performed at the end of each analysis cycle by two 30 second injections of 10 mM Glycine, pH 2.5, 1M Sodium Chloride, 0.05% polysorbate 20. Samples and control compound samples were run in duplicate and controls are also run at regular intervals during the assay to monitor surface and assay performance.
(§8) Data analyses are carried out using Biacore™ A100 evaluation software v1.1 to validate assay quality. Binding level report points were used relative to BCL-2 control samples to calculate % inhibition values for each compound protein mixture. […] The range of data shown in table 1 represents the high and low IC50 values obtained from multiple experiments.

[2] = molecular target: BCL-2 binding to biotinylated BAK peptide (Homo sapiens (Human), UniProt P10415); experiment: SPR (Biacore) solution inhibition assay, BCL-2 binding to BAK peptide surface; conditions: read-out: BCL2_SPR IC50 BAK
Chain of BCL-2 binding to biotinylated BAK peptide (P10415 whole entry): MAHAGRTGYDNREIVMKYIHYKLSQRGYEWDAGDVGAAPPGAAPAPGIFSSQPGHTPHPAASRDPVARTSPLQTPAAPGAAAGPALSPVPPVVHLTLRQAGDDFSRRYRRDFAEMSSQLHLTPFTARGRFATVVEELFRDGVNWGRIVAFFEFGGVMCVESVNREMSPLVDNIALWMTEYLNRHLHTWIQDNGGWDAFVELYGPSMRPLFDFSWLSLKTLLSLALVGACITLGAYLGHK
Text: as §1, §2, §3, §4, §5, §6, §7, §8

[3] = high and low IC50 values from multiple experiments, 56 nM BCL-2, BAK peptide sensor surface, 25° C.
[4] = high and low IC50 values from multiple experiments, 56 nM BCL-2, BAD peptide sensor surface, 25° C.

Chain of BCL-2 binding to biotinylated BAD peptide (P10415 whole entry): as above

| SMILES | IC50 [1] [µM] | IC50 [2] [µM] | IC50 [2, 3] [µM] | IC50 [1, 4] [µM] |
| --- | --- | --- | --- | --- |
| CCCCN(CCCC)C(=O)c1cc(C)n(-c2ccc(NS(=O)(=O)C(C)C)cc2C(=O)N2Cc3ccccc3C[C@H]2CO)n1 [Example 3] | 0.126 to 0.127 | 0.0878 to 0.093 |  |  |
| CCCCN(CCCC)C(=O)c1cc(C)n(-c2ccc(NS(=O)(=O)c3ccccc3Cl)cc2C(=O)N2Cc3ccccc3C[C@H]2CO)n1 [Example 14] |  |  | 0.435 to 0.683 |  |
| CCCCN(CCCC)C(=O)c1cc(C)n(-c2ccc(NS(=O)(=O)c3ccc(CNC(=O)c4ccc(Cl)cc4)s3)cc2C(=O)N2Cc3ccccc3C[C@H]2CO)n1 [Example 30] |  |  | 2.28 to 2.51 |  |
| CCCCN(CCCC)C(=O)c1cc(C)n(-c2ccc(NS(=O)(=O)c3ccccc3)cc2C(=O)N2Cc3ccccc3C[C@H]2CO)n1 (stereo in doubt) [Example 1, N,N-dibutyl-1-(2-(3-(hydroxymethyl)-1,2,3,4-tetrahydroisoquinoline-2-carbonyl)-4-(phenylsulfonamido)phenyl)-5-methyl-1H-pyrazole-3-carboxamide] | 0.629 to 0.756 | 0.474 to 0.564 |  |  |
| CCCCN(CCCC)C(=O)c1cc(C)n(-c2ccc(NS(=O)(=O)c3ccc(Oc4ccccc4C)cc3)cc2C(=O)N2Cc3ccccc3C[C@H]2CO)n1 [Example 10] |  |  | 3.02 to 3.68 | > 16 |

Continued, values first:

| IC50 [1] [µM] | IC50 [2] [µM] | IC50 [2, 3] [µM] | IC50 [1, 4] [µM] | SMILES |
| --- | --- | --- | --- | --- |
|  |  | 0.252 to 0.257 | 0.418 to 0.436 | CCCCN(CCCC)C(=O)c1cc(C)n(-c2ccc(NS(=O)(=O)c3ccc(NC(C)=O)c(Cl)c3)cc2C(=O)N2Cc3ccccc3C[C@H]2CO)n1 [Example 25] |
|  |  |  | > 16 | CCCCN(CCCC)C(=O)c1cc(C)n(-c2ccc(NS(=O)(=O)c3ccc(-c4ccc(Cl)cc4)cc3)cc2C(=O)N2Cc3ccccc3C[C@H]2CO)n1 [Example 9] |
|  |  | 0.828 to 0.871 |  | CCCCN(CCCC)C(=O)c1cc(C)n(-c2ccc(NS(=O)(=O)c3cc(Cl)ccc3F)cc2C(=O)N2Cc3ccccc3C[C@H]2CO)n1 [Example 17] |
| 0.367 to 0.387 | 0.26 to 0.33 |  |  | CCCCN(CCCC)C(=O)c1cc(C)n(-c2ccc(NS(C)(=O)=O)cc2C(=O)N2Cc3ccccc3C[C@H]2CO)n1 [Example 2] |
